Values after ≈ are worked out from the molar mass of the structure shown. Positions of bridges follow the written chain, without caps; N, C: chain ends. Residues, ends and D or L forms follow the SMILES beside them. No end group written: not given here.
How the values were obtained:
S. aureus ATCC 6538 [1] = type: cell-based, Staphylococcus aureus; details: ATCC 6538, 24 h
Procedure: (§1) Peptide solutions were first mixed with bacterial cultures (5 × 10^5 CFU/mL) and incubated at 37°C for 24 h. The planktonic bacterial cells were gently removed by washing with PBS the next day, and methanol was utilised to fix the biofilm. Crystal violet (0.1% v/v), PBS and acetic acid (30%, v/v) were subsequently used to stain biofilm, remove remaining stains and re‐dissolve stains, respectively. The absorbance was determined at 595 nm. The experiments were conducted in three independent runs.

E. faecalis NCTC 12697 [2] = type: cell-based; details: NCTC 12697, 24 h
Procedure: (§2) The bacterial culture (5 × 10^5 CFU/mL) was cultured in a sterile 96‐well plate for 24 h to generate mature biofilms. The planktonic bacteria were removed by washing three times with sterile PBS buffer. Then, fresh broth with different peptide concentrations was added to each well and further incubated for another 24 h. Then, the plate was stained with crystal violet. The stain was solubilised in 30% acetic acid, and the absorbance was measured at 595 nm. The experiments were conducted in three independent runs.

C. albicans ATCC 10231 = type: cell-based, Candida albicans
Procedure: (§3) Antimicrobial assays were conducted using standard broth micro‐dilutions, as mentioned previously.[11] Gram‐positive bacteria S. aureus (ATCC 6538), Methicillin‐resistant S. aureus (MRSA; NCTC 12493), […] (NCTC 12697), Gram‐negative bacteria Escherichia coli (ATCC 8739), Klebsiella pneumoniae (ATCC 43816), Pseudomonas aeruginosa (ATCC 9027), Acinetobacter baumannii (ATCC BAA 747), and yeast, Candida albicans (ATCC 10231) were used in the test. The experiments were conducted in three independent runs.

P. aeruginosa ATCC 9027 [3] = type: cell-based, Pseudomonas aeruginosa
Procedure: as §3

K. pneumoniae ATCC 43816 [4] = type: cell-based, Klebsiella pneumoniae; details: ATCC 43816, 24 h
Procedure: as §2

P. aeruginosa ATCC 9027 [5] = type: cell-based, Pseudomonas aeruginosa; details: ATCC 9027, 24 h
Procedure: as §1

K. pneumoniae ATCC 43816 [6] = type: cell-based, Klebsiella pneumoniae; details: ATCC 43816, 24 h; remark: listed apart in the source
Procedure: as §1

MRSA NCTC 12493 [7] = type: cell-based, Methicillin‐resistant S. aureus; details: NCTC 12493, 24 h
Procedure: as §1

[8] = system: Gram‐positive and Gram‐negative test bacteria; type: cell-based; details: geometric mean of MICs against the three Gram‐negative strains
E. faecalis NCTC 12697 [9] = type: cell-based
MRSA NCTC 12493 [10] = type: cell-based, Methicillin‐resistant S. aureus
Procedure: as §3

MRSA NCTC 12493 [11] = type: cell-based, Methicillin‐resistant S. aureus; details: NCTC 12493, 24 h; remark: listed apart in the source
Procedure: as §2

E. coli ATCC 8739 [12] = type: cell-based, Escherichia coli; details: ATCC 8739, 24 h
Procedure: as §2

S. aureus ATCC 6538 [13] = type: cell-based, Staphylococcus aureus; details: ATCC 6538, 24 h; remark: listed apart in the source
Procedure: as §2

E. coli ATCC 8739 [14] = type: cell-based, Escherichia coli
Procedure: as §3

horse erythrocytes = assay: Haemolytic activity; type: cell-based; details: 128 μM peptide; horse erythrocytes 2% v/v, 37°C, 2 h; 0.1% Triton X‐100 positive control; absorbance 570 nm; three independent runs
Procedure: The haemolytic activity of peptides was conducted using horse erythrocytes (2%, v/v). Peptide solutions were mixed with washed horse erythrocyte suspension at 37°C for 2 h. Triton X‐100 (0.1%) was used as a positive control. The mixture was then centrifuged at 930 g for 5 min. The absorbance of the supernatants was detected at 570 nm. The haemolysis rate was calculated using the formula: Haemolysis%=Sample group−negative group/positive group−negative group×100%.
This experiment was performed in three independent runs.

S. aureus ATCC 6538 [15] = type: cell-based, Staphylococcus aureus
Procedure: as §3

K. pneumoniae ATCC 43816 [16] = type: cell-based, Klebsiella pneumoniae
Procedure: as §3

E. coli ATCC 8739 [17] = type: cell-based, Escherichia coli; details: ATCC 8739, 24 h; remark: listed apart in the source
Procedure: as §1

P. aeruginosa ATCC 9027 [18] = type: cell-based, Pseudomonas aeruginosa; details: ATCC 9027, 24 h; remark: listed apart in the source
Procedure: as §2

[19] = system: Gram‐positive and Gram‐negative test bacteria; type: cell-based; details: for GM MIC, total bacteria: geometric mean of MICs against all test bacteria; for GM MIC, G+: geometric mean of MICs against the three Gram‐positive strains
Procedure: as §3

E. faecalis NCTC 12697 [20] = type: cell-based; details: NCTC 12697, 24 h; remark: listed apart in the source
Procedure: as §1

MRSA NCTC 12493 [21] = assay: Ex vivo porcine skin infection model; parameters: species or system Methicillin‐resistant S. aureus; details: vancomycin 8 μM, 4 h
Procedure: The antibacterial efficacy of OG9 and OG9c‐De‐NH2 was further evaluated in an ex vivo porcine skin model, as reported.[27] The porcine skin was shaved and cleaned with 70% ethanol and dd H2O. The polyethylene tubing was glued to the cleaned skin surface with cyanoacrylate glue. Exponential or persister cells were inoculated to infect each skin sample. After 15 min of incubation at 37°C, each skin sample was treated with peptides at concentrations of 1 × or 10 × MIC or vancomycin (8 μM). After another 4 h of incubation, each tubing well was washed with PBS. Ten microliters of the mixture in each well was diluted with PBS buffer and spotted on the agar plate. The number of viable bacteria cells was counted after overnight incubation. The experiments were conducted in three independent runs.

| Compound | MBIC (S. aureus ATCC 6538 [1]) [µM] | MBC (C. albicans ATCC 10231) [µM] | MIC (C. albicans ATCC 10231) [µM] | MBC (P. aeruginosa ATCC 9027 [3]) [µM] | MIC (P. aeruginosa ATCC 9027 [3]) [µM] | MBIC (P. aeruginosa ATCC 9027 [5]) | MBIC (MRSA NCTC 12493 [7]) [µM] | GM MIC, G− [8] [µM] | MBC (E. faecalis NCTC 12697 [9]) [µM] | MIC (E. faecalis NCTC 12697 [9]) [µM] | MBC (MRSA NCTC 12493 [10]) [µM] | MIC (MRSA NCTC 12493 [10]) [µM] | MBC (E. coli ATCC 8739 [14]) [µM] | MIC (E. coli ATCC 8739 [14]) [µM] | Haemolysis (horse erythrocytes) | MBC (S. aureus ATCC 6538 [15]) | MBC (K. pneumoniae ATCC 43816 [16]) [µM] | MIC (K. pneumoniae ATCC 43816 [16]) [µM] | GM MIC, total bacteria [19] [µM] | GM MIC, G+ [19] [µM] | further results |
| --- | --- | --- | --- | --- | --- | --- | --- | --- | --- | --- | --- | --- | --- | --- | --- | --- | --- | --- | --- | --- | --- |
| CC[C@H](C)[C@@H]1NC(=O)[C@H](CCCCN)NC(=O)[C@@H](NC(=O)[C@H](CC(C)C)NC(=O)[C@@H](NC(=O)[C@H](CCCCN)NC(=O)[C@@H]2CCCN2C(=O)[C@H](CC(C)C)NC(=O)[C@H](Cc2ccccc2)NC(=O)[C@H](CC(N)=O)NC(=O)[C@H](C)NC(=O)[C@H](C)NC(=O)[C@H](CC(C)C)NC(=O)CNC(=O)[C@H](C)NC(=O)[C@@H](NC(=O)[C@H](CC(C)C)NC(=O)[C@@H]2CCCN2C(=O)[C@@H](N)Cc2ccccc2)[C@@H](C)CC)[C@@H](C)CC)CSSC[C@@H](C(=O)O)NC(=O)[C@H](CCCCN)NC(=O)[C@H](CCCNC(=N)N)NC(=O)[C@H](C)NC1=O [OG9] (H-FPLIAGLAANFLPKILCKIARKC-OH; disulfide 17-23) | 16 | > 128 | > 128 | 16 (≈ 40 µg/mL) | 16 (≈ 40 µg/mL) | >128/>128 μM | 16 | 16 | 16 (≈ 40 µg/mL) | 16 (≈ 40 µg/mL) | 32 (≈ 80 µg/mL) | 16 (≈ 40 µg/mL) | 4 (≈ 10 µg/mL) | 4 (≈ 10 µg/mL) | around 85% | 8 µM (≈ 20 µg/mL) | 64 (≈ 160 µg/mL) | 64 (≈ 160 µg/mL) | 12.7 | 10.1 | MBEC (E. faecalis NCTC 12697 [2]): > 128 µM; MBEC (K. pneumoniae ATCC 43816 [4]): >128/>128 μM; MBIC (K. pneumoniae ATCC 43816 [6]): >128/>128 μM; MBEC (MRSA NCTC 12493 [11]): > 128 µM; MBEC (E. coli ATCC 8739 [12]): > 128 µM; MBEC (S. aureus ATCC 6538 [13]): > 128 µM; MIC (S. aureus ATCC 6538 [15]): 4 µM (≈ 10 µg/mL); MBIC (E. coli ATCC 8739 [17]): 32 µM; MBEC (P. aeruginosa ATCC 9027 [18]): >128/>128 μM; MBIC (E. faecalis NCTC 12697 [20]): 32 µM |
| CC[C@H](C)[C@@H]1NC(=O)[C@H](C)NC(=O)[C@@H](NC(=O)[C@H](CC(C)C)NC(=O)[C@@H](NC(=O)[C@H](CCCCN)NC(=O)[C@@H]2CCCN2C(=O)[C@H](CC(C)C)NC(=O)[C@H](Cc2ccccc2)NC(=O)[C@H](CC(N)=O)NC(=O)[C@H](C)NC(=O)[C@H](CCCCN)NC(=O)[C@H](CC(C)C)NC(=O)CNC(=O)[C@H](C)NC(=O)[C@@H](NC(=O)[C@H](CC(C)C)NC(=O)[C@@H]2CCCN2C(=O)[C@@H](N)Cc2ccccc2)[C@@H](C)CC)[C@@H](C)CC)CSSC[C@@H](C(=O)O)NC(=O)[C@H](CCCCN)NC(=O)[C@H](CCCNC(=N)N)NC(=O)[C@H](C)NC1=O [OG9b] (H-FPLIAGLKANFLPKILCAIARKC-OH; disulfide 17-23) | – | > 128 | > 128 | 64 (≈ 160 µg/mL) | 32 (≈ 80 µg/mL) | – | – | 16 | > 128 | > 128 | > 128 | > 128 | 8 (≈ 20 µg/mL) | 8 (≈ 20 µg/mL) | 50% | 128 µM (≈ 320 µg/mL) | 16 (≈ 40 µg/mL) | 16 (≈ 40 µg/mL) | 50.8 | 161.3 | MIC (S. aureus ATCC 6538 [15]): 64 µM (≈ 160 µg/mL) |
| CN[C@H](CC(C)C)C(=O)N[C@H]1C(=O)N[C@@H](CC(N)=O)C(=O)N[C@H]2C(=O)N[C@H]3C(=O)N[C@H](C(=O)N[C@H](C(=O)O)c4cc(O)cc(O)c4-c4cc3ccc4O)[C@H](O)c3ccc(c(Cl)c3)Oc3cc2cc(c3O[C@@H]2O[C@H](CO)[C@@H](O)[C@H](O)[C@H]2O[C@H]2C[C@](C)(N)[C@H](O)[C@H](C)O2)Oc2ccc(cc2Cl)[C@H]1O [Vancomycin] | – | – | – | – | – | – | – | – | – | – | – | – | – | – | – | – | – | – | – | – | Ex vivo effect on exponential MRSA cells (MRSA NCTC 12493 [21]): weak inhibiting effect |
| FPLIARLAAKFLPKIL-NH2 [OG9c‐De‐NH2] | 1 | 16 | 16 | 8 | 8 | 64 µM | 1 | 4 | 8 | 8 | 2 | 2 | 2 | 2 | – | 2/2 μM | 4 | 4 | 3.6 | 3.2 | MBIC (E. coli ATCC 8739 [17]): 16 µM; MBIC (E. faecalis NCTC 12697 [20]): 16 µM |

Source: article PMC10243163, “A frog‐derived antimicrobial peptide as a potential anti‐biofilm agent in combating Staphylococcus aureus skin infection” (Journal of Cellular and Molecular Medicine, 2023)
